Values after ≈ are worked out from the molar mass of the structure shown.
Legend:
[1] = tested on: Mycobacterium tuberculosis; experiment: Antitubercular activity against Mycobacterium tuberculosis H37Rv by microbroth dilution method; type: functional; settings: Mycobacterium tuberculosis, H37Rv; read-out: MIC
Bacillus anthracis = experiment: Antibacterial activity against Bacillus anthracis Sterne 34F2 by microbroth dilution method; type: functional; settings: Bacillus anthracis, Sterne 34F2; read-out: MIC
Enterococcus faecalis = experiment: Antibacterial activity against Enterococcus faecalis ATCC 33186 by microbroth dilution method; type: functional; settings: Enterococcus faecalis, ATCC 33186; read-out: MIC
Staphylococcus aureus [2] = experiment: Antibacterial activity against methicillin-sensitive Staphylococcus aureus ATCC 29213 by microbroth dilution method; type: functional; settings: Staphylococcus aureus, ATCC 29213; read-out: MIC
Staphylococcus aureus [3] = experiment: Antibacterial activity against methicillin-resistant Staphylococcus aureus NRS70 by microbroth dilution method; type: functional; settings: Staphylococcus aureus, NRS70; read-out: MIC
Streptococcus pyogenes = experiment: Antibacterial activity against Streptococcus pyogenes ATCC 700294 by microbroth dilution method; type: functional; settings: Streptococcus pyogenes, ATCC 700294; read-out: MIC
Streptococcus pneumoniae = experiment: Antibacterial activity against Streptococcus pneumoniae R6 by microbroth dilution method; type: functional; settings: Streptococcus pneumoniae, R6; read-out: MIC
Bacillus subtilis = experiment: Antibacterial activity against Bacillus subtilis ATCC 23857 by microbroth dilution method; type: functional; settings: Bacillus subtilis, ATCC 23857; read-out: MIC
Acinetobacter baumannii = experiment: Antibacterial activity against Acinetobacter baumannii ATCC 19606 by microbroth dilution method; type: functional, ATCC 19606 = CIP 70.34 = JCM 6841; settings: Acinetobacter baumannii, ATCC 19606 = CIP 70.34 = JCM 6841; read-out: MIC
Escherichia coli [4] = experiment: Antibacterial activity against Escherichia coli K-12 by microbroth dilution method; type: functional
Escherichia coli [5] = experiment: Antibacterial activity against Escherichia coli harboring TolC deletion mutant by microbroth dilution method; type: functional; settings: Escherichia coli; read-out: MIC
Burkholderia cepacia = experiment: Antibacterial activity against Burkholderia cepacia ATCC 25416 by microbroth dilution method; type: functional
Klebsiella pneumoniae = experiment: Antibacterial activity against Klebsiella pneumoniae ATCC 33495 by microbroth dilution method; type: functional
Proteus mirabilis = experiment: Antibacterial activity against Proteus mirabilis ATCC 25933 by microbroth dilution method; type: functional
Proteus vulgaris = experiment: Antibacterial activity against Proteus vulgaris ATCC 33420 by microbroth dilution method; type: functional
Pseudomonas aeruginosa = experiment: Antibacterial activity against Pseudomonas aeruginosa PAO1 by microbroth dilution method; type: functional

Structure (SMILES)	MIC [1] [µg/mL]	MIC (Bacillus anthracis) [µg/mL]	MIC (Enterococcus faecalis) [µg/mL]	MIC (Staphylococcus aureus [2]) [µg/mL]	MIC (Staphylococcus aureus [3]) [µg/mL]	MIC (Streptococcus pyogenes) [µg/mL]	MIC (Streptococcus pneumoniae) [µg/mL]	MIC (Bacillus subtilis) [µg/mL]	MIC (Acinetobacter baumannii) [µg/mL]	MIC (Escherichia coli [4]) [µg/mL]	MIC (Escherichia coli [5]) [µg/mL]	MIC (Burkholderia cepacia) [µg/mL]	MIC (Klebsiella pneumoniae) [µg/mL]	MIC (Proteus mirabilis) [µg/mL]	MIC (Proteus vulgaris) [µg/mL]	MIC (Pseudomonas aeruginosa) [µg/mL]
COc1ccc2cc1Oc1cc(ccc1OC)CCC(N)CCCC2 (stereo unspecified)	200 (≈ 586 µM)	100 (≈ 293 µM)	200 (≈ 586 µM)	200 (≈ 586 µM)	200 (≈ 586 µM)	200 (≈ 586 µM)	200 (≈ 586 µM)	100 (≈ 293 µM)	200 (≈ 586 µM)	200 (≈ 586 µM)	100 (≈ 293 µM)	> 100	> 100	> 100	> 100	> 100
COc1ccc2cc1Oc1cc(ccc1OC)CCC(NCCCCc1ccccc1)CCCC2 (stereo unspecified)	25 (≈ 52.8 µM)	50 (≈ 106 µM)	25 (≈ 52.8 µM)	25 (≈ 52.8 µM)	25 (≈ 52.8 µM)	12.5 (≈ 26.4 µM)	50 (≈ 106 µM)	12.5 (≈ 26.4 µM)	100 (≈ 211 µM)	> 100	12.5 (≈ 26.4 µM)	> 100	> 100	> 100	> 100	> 100
COc1ccc2cc1Oc1cc(ccc1OC)CCC(NCCCc1ccccc1)CCCC2 (stereo unspecified)	50 (≈ 109 µM)	50 (≈ 109 µM)	25 (≈ 54.4 µM)	25 (≈ 54.4 µM)	25 (≈ 54.4 µM)	50 (≈ 109 µM)	50 (≈ 109 µM)	25 (≈ 54.4 µM)	50 (≈ 109 µM)	> 100	12.5 (≈ 27.2 µM)	> 100	> 100	> 100	> 100	> 100
CCNC1CCCCc2ccc(OC)c(c2)Oc2cc(ccc2OC)CC1 (stereo unspecified)	100 (≈ 271 µM)	> 100	> 100	> 100	> 100	> 100	> 100	> 100	> 100	> 100	> 100	> 100	> 100	> 100	> 100	> 100
COc1ccc2cc1Oc1cc(ccc1OC)CCC(NCCc1ccccc1F)CCCC2 (stereo unspecified)	25 (≈ 53.9 µM)	50 (≈ 108 µM)	25 (≈ 53.9 µM)	50 (≈ 108 µM)	25 (≈ 53.9 µM)	50 (≈ 108 µM)	50 (≈ 108 µM)	12.5 (≈ 27 µM)	100 (≈ 216 µM)	> 100	25 (≈ 53.9 µM)	> 100	> 100	> 100	> 100	> 100
COc1ccc2cc1Oc1cc(ccc1OC)CCC(NCCc1ccc(O)cc1)CCCC2 (stereo unspecified)	100 (≈ 217 µM)	50 (≈ 108 µM)	100 (≈ 217 µM)	> 100	100 (≈ 217 µM)	100 (≈ 217 µM)	100 (≈ 217 µM)	50 (≈ 108 µM)	> 100	> 100	100 (≈ 217 µM)	> 100	> 100	> 100	> 100	> 100
CCCCCCNC1CCCCc2ccc(OC)c(c2)Oc2cc(ccc2OC)CC1 (stereo unspecified)	12.5 to 50 (≈ 29.4 to 117 µM)	–	–	–	–	–	–	–	–	–	–	–	–	–	–	–
CCN(CC)C1CCCCc2ccc(OC)c(c2)Oc2cc(ccc2OC)CC1 (stereo unspecified)	100 (≈ 252 µM)	> 100	> 100	> 100	> 100	> 100	> 100	> 100	> 100	> 100	> 100	> 100	> 100	> 100	> 100	> 100
COc1ccc(CCNC2CCCCc3ccc(OC)c(c3)Oc3cc(ccc3OC)CC2)cc1OC (stereo unspecified)	100 (≈ 198 µM)	> 100	> 100	> 100	> 100	> 100	> 100	> 100	> 100	> 100	> 100	> 100	> 100	> 100	> 100	> 100
COc1ccc2cc1Oc1cc(ccc1OC)CCC(NCCc1cccc(F)c1)CCCC2 (stereo unspecified)	25 (≈ 53.9 µM)	50 (≈ 108 µM)	25 (≈ 53.9 µM)	50 (≈ 108 µM)	25 (≈ 53.9 µM)	50 (≈ 108 µM)	50 (≈ 108 µM)	12.5 (≈ 27 µM)	50 (≈ 108 µM)	> 100	25 (≈ 53.9 µM)	> 100	> 100	> 100	> 100	> 100
COc1ccc2cc1Oc1cc(ccc1OC)CCC(NCCc1ccccn1)CCCC2 (stereo unspecified)	100 (≈ 224 µM)	> 100	> 100	> 100	> 100	> 100	100 (≈ 224 µM)	100 (≈ 224 µM)	> 100	> 100	100 (≈ 224 µM)	> 100	> 100	> 100	> 100	> 100

— ChEMBL document CHEMBL4477227, “Synthesis and antibacterial evaluation of macrocyclic diarylheptanoid derivatives” (Bioorg Med Chem Lett, 2016)
